According to paper PMC4978996 (Scientific Reports, 2016):
Where “and” joins values, the source holds several entries; their conditions need not be identical. Equal entries are not always repeated.

Columns and labels:
[1] = test system: ChAT; parameters: method as in literature; settings: ChAT inhibition, experimentally determined value taken from literature; ref literature; cited from earlier work
[2] = biological target: T1, recombinant human ChAT (Homo sapiens, UniProt P28329); assay: Colorimetric ChAT assay with recombinant human ChAT protein; type: biochemical
T1 construct: His6 (N); made in house; host or cells: E. coli BL21 Rosetta2
T1 sequence (P28329 1-630 isoform P28329-3): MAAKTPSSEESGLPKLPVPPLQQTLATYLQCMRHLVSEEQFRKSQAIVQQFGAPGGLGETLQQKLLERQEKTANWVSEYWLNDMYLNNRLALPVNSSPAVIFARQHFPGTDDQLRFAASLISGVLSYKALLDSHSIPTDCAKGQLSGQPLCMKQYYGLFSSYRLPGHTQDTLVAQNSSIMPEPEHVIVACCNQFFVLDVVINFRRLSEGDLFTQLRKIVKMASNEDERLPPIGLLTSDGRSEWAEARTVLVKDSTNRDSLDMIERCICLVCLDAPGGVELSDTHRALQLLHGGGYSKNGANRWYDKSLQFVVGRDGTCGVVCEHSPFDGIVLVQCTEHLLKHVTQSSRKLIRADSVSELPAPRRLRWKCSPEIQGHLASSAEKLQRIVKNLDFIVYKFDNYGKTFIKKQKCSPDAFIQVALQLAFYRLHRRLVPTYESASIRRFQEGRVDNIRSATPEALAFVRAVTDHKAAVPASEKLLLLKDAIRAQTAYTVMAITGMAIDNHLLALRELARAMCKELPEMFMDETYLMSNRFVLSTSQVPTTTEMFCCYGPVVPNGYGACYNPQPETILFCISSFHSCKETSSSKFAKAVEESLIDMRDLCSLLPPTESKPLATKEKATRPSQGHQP
Procedure: ChAT activity was measured with a new colorimetric assay as described previously, using recombinant ChAT protein. Briefly, 20 μL/wells of 1.5 μg/ml of the recombinant ChAT was incubated with 20 μL/well of different concentrations of α-NETA for 30 minutes at room temperature in dilution buffer (10 mM Tris-HCl, pH 7.4, 150 mM NaCl, 1.0 mM EDTA, 0.05% (v/v) Triton X-100). […]
Then 50 μl of a cocktail-B [phosphate buffered saline, containing 0.93 U/ml choline oxidase (C5896, Sigma-Aldrich), 1/5000 U streptavidin-horseradish peroxidase, 6.3 mM phenol, and 3 mM 4-aminoantipyrine (A4382, Sigma-Aldrich)] was added to each sample including the standards. Absorbance was then monitored using a microplate spectrophotometer reader (Infinite M1000, Tecan) at 500 nm wavelength. ChAT activity (nmol/min/mg of recombinant protein) was calculated according to the following formula: ChAT activity [ChBL-ChS]/t/m, where ChBL is the measured number of mole of choline in control wells lacking the inhibitor and ChAT, ChS is the measured number of mole of choline in the sample wells, the t is the incubation time and m is the mass of ChAT protein added per sample well. […]

[3] = test system: purified human placental ChAT; parameters: method as in PMID 3361452; settings: cited from earlier work
[4] = biological target: T2, BuChE (Homo sapiens, UniProt P06276); assay: biochemical
T2 construct: a 1:400 diluted solution of a pooled human plasma sample was used; from tissue; host or cells: pooled human plasma
Procedure: (§1) A modified version of Ellman’s colorimetric assay was used for the enzymatic activity of BuChE and AChE, as described previously. For BuChE activity, 50 μL/well of a 1:400 diluted solution of a pooled human plasma sample was used. For AChE activity, the 1:400 diluted pooled human plasma samples had been supplied with 50 ng/ml of purified AChE protein (Sigma). These were preincubated with 50 μL/wells of different concentrations of α-NETA for 30 minutes at room temperature. Then, 100 μL of a cocktail (Na/K phosphate buffer, containing 5,5′-dithiobis(2-nitrobenzoic acid) (DTNB, final concentration 0.4 mM) and butyrylthiocholine iodide (Sigma, final concentration 5 mM) or acetylthiocholine iodide (Sigma, final concentration 0.5 mM) were added and the changes in absorbance was monitored at one minutes intervals at 412 nm wavelength. For the AChE activity, the cocktail also contained the selective BuChE inhibitor ethopropazine (Sigma, final concentration 0.1 mM).

[5] = biological target: T3, AChE (Homo sapiens, UniProt P22303); assay: Modified Ellman's colorimetric assay, AChE activity; type: biochemical
T3 construct: purchased Sigma
Procedure: as §1

T2 sequence (P06276 29-602): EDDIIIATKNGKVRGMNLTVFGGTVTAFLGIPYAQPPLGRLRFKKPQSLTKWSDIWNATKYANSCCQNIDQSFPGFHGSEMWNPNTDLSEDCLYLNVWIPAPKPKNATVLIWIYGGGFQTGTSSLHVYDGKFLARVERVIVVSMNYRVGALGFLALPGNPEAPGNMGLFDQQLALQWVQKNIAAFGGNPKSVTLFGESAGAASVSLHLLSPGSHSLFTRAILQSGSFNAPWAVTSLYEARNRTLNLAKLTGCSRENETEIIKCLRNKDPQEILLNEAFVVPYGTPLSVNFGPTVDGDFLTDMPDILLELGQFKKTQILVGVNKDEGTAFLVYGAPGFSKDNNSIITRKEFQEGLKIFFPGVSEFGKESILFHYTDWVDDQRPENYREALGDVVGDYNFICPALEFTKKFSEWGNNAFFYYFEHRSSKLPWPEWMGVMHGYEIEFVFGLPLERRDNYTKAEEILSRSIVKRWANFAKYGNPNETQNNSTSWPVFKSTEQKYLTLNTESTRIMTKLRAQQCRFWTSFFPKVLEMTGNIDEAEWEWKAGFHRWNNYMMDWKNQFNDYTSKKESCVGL
T3 sequence (P22303 32-614): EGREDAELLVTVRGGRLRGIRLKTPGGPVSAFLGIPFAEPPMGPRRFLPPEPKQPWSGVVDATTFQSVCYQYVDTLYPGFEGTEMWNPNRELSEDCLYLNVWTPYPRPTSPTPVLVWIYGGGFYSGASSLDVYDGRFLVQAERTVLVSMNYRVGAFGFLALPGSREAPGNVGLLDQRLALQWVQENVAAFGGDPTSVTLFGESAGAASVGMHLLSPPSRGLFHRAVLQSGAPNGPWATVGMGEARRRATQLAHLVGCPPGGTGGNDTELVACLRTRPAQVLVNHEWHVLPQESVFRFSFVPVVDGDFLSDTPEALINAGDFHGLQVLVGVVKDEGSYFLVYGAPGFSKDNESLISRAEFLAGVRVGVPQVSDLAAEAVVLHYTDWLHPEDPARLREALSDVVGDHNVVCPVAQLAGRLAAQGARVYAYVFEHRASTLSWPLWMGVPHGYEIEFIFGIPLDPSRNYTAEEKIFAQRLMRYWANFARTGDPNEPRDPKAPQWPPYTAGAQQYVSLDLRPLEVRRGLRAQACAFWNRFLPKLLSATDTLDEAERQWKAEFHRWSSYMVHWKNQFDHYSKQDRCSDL

| Compound | Actual pIC50 / Observed pIC50 [1] | other results |
| --- | --- | --- |
| C[n+]1ccc(/C=C/c2cccc3ccccc23)cc1 [Compound 1] | 6.33 |  |
| C[n+]1ccc(/C=C/c2cccc(Br)c2)cc1 [Compound 2] | 5.83 |  |
| C[n+]1ccc(/C=C/c2cccc(Cl)c2)cc1 [Compound 3] | 5.64 |  |
| C[n+]1ccc(/C=C/c2ccc(Br)cc2)cc1 [Compound 4] | 5.59 |  |
| C[n+]1ccc(/C=C/c2ccc(Cl)c(Cl)c2)cc1 [Compound 5] | 5.48 |  |
| C[n+]1ccc(/C=C/c2ccc(Cl)cc2)cc1 [Compound 6] | 5.16 |  |
| C[n+]1ccc(/C=C/c2ccccc2)cc1 [Compound 7] | 4.83 |  |
| Cc1ccc(/C=C/c2cc[n+](C)cc2)cc1 [Compound 8] | 4.70 |  |
| C[n+]1ccc(/C=C/c2ccc(F)cc2)cc1 [Compound 9] | 4.68 |  |
| C[n+]1ccc(/C=C/c2ccccc2Cl)cc1 [Compound 10] | 4.56 |  |
| C[n+]1ccc(/C=C/c2cccc([N+](=O)[O-])c2)cc1 [Compound 11] | 3.83 |  |
| C[n+]1ccc(/C=C/c2ccc([N+](=O)[O-])cc2)cc1 [Compound 12] | 3.70 |  |
| Cc1c[n+](C)ccc1/C=C/c1cccc2ccccc12 [Compound 13] | 6.40 |  |
| Cc1c[n+](C)ccc1/C=C/c1cccc(Cl)c1 [Compound 14] | 5.80 |  |
| Cc1c[n+](C)ccc1/C=C/c1ccc(Cl)c(Cl)c1 [Compound 15] | 5.77 |  |
| Cc1c[n+](C)ccc1/C=C/c1ccccc1 [Compound 16] | 5.30 |  |
| Cc1c[n+](C)ccc1/C=C/c1ccccc1Cl [Compound 17] | 4.77 |  |
| Cc1c[n+](C)ccc1/C=C/c1c[nH]c2ccccc12 [Compound 18] | 4.41 |  |
| OCC[n+]1ccc(/C=C/c2cccc(Br)c2)cc1 [Compound 19] | 5.38 |  |
| OCC[n+]1ccc(/C=C/c2cccc(Cl)c2)cc1 [Compound 20] | 5.62 |  |
| C[n+]1ccc(/C=C/c2ccccc2)c2ccccc21 [Compound 21] | 5.46 |  |
| C[n+]1ccc(/C=C/c2cccs2)c2ccccc21 [Compound 22] | 3.60 |  |
| C[n+]1ccc(/C=C/c2cccnc2)c2ccccc21 [Compound 23] | 3.22 |  |
| OCC[n+]1ccc(/C=C/c2cccc3ccccc23)c2ccccc21 [Compound 24] | 6.28 |  |
| OCC[n+]1ccc(/C=C/c2ccccc2)c2ccccc21 [Compound 25] | 5.54 |  |
| C[N+](C)(C)CCC(=O)c1cccc2ccccc12.[I-] [α-NETA, 2-(α-naphthoyl) ethyltrimethylammonium iodide] |  | higher potency as ChAT inhibitor in this system than reported ([2]; IC50 88 nM versus reported ~9 μM): ~ 100 folds; IC50 ([2]; recombinant human ChAT, 30 min preincubation): ~0.088 µM and 0.088 µM; Observed pIC50 (reported pIC50) [3]: 5.05; IC50 ([3]; read-out: IC50 (reported, ChAT)): ~9 µM; inhibition at 3 µM ([4]; at a concentration of 3 μM): 10%; selectivity for ChAT relative to BuChE ([4]; based on IC50 ratios): ~ 378 fold; IC50 ([4]; pooled human plasma, 30 min preincubation): ~30 µM and 33.3 µM; IC50 ([5]; 30 min preincubation): ~30 µM and 34.2 µM; inhibition at 10 µM ([5]; at a concentration of 10 μM): 10%; selectivity for ChAT compared to AChE ([5]; based on IC50 ratios): 388 fold and ~ 388 fold |
